This is an account of results in patent US9266880B2, “Substituted azaindazole compounds” (Bristol-Myers Squibb Company, priority 2010, dated 2016).

The target of this assay is Human CYP17 (Homo sapiens (Human), UniProt P05093). Description: CYP17 Total SPA Assay. The note with it: microsomes from HEK2 cells stably transfected with CYP17; 3H-Pregnenolone 1 uM, NADPH 2 mM; 45 minutes at room temperature. The class given is biochemical. As to the method: The assays were performed in U-bottom 384-well optiplates. The final assay volume was 15 μl prepared from 7.5 μl additions of microsomes (prepared as a high-speed pellet from homogenized HEK2 cells stably transfected with CYP17), substrates (3H— Pregnenolone and NADPH) and test compounds in assay buffer (50 mM Potassium phosphate pH 7.2, 10% glycerol). The reaction was initiated by the combination of the microsomes and substrates in wells containing compound. The reaction was incubated at room temperature for 45 minutes and terminated by adding 7.5 μl of 0.2N HCl to each well. Following an incubation period of 10 minutes, anti-DHEA-coated SPA beads were added to the terminated reaction. The plate was sealed and incubated overnight with shaking at 4° C. The beads were allowed to settle in the plate for 1 hour and the plate read on a TOPCOUNT® (Perkin-Elmer) plate reader.
Human CYP17, sequence (P05093 whole entry): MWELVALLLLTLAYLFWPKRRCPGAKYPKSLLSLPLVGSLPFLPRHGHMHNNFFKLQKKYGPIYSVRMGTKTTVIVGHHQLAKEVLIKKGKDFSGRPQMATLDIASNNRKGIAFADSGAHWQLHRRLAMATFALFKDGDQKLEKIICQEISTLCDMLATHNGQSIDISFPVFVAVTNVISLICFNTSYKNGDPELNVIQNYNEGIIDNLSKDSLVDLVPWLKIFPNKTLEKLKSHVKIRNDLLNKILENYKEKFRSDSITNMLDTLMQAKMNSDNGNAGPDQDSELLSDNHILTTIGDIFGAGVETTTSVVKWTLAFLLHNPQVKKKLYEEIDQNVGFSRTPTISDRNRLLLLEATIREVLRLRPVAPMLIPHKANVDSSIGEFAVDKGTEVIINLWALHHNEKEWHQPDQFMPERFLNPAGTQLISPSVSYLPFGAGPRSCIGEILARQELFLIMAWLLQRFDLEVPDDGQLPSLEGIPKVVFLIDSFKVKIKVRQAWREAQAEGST
Inhibition data were calculated by comparison to no enzyme control reactions for 100% inhibition and vehicle-only reactions for 0% inhibition. The final concentration of reagents in the assays are NADPH, 2 mM; 3H-Pregnenolone, 1 uM; microsomes, 1.25 ug/ml; Anti-DHEA-SPA beads (0.125 mg/well) in 0.5% Triton X-100 and DMSO, 0.05%. Dose response curves were generated to determine the concentration required inhibiting 50% of enzyme activity (IC50). Compounds were dissolved at 10 mM in dimethylsulfoxide (DMSO) and evaluated at eleven concentrations, each in duplicate. IC50 values were derived by non-linear regression analysis.
In the case of `NS(=O)(=O)c1cccc(-n2ncc3c(-c4cncc5ncccc45)ccnc32)c1` [Example 5, 3-(4-(1,7-Naphthyridin-5-yl)-1H-pyrazolo[3,4-b]pyridin-1-yl)benzenesulfonamide], the 50% inhibitory concentration (IC50) was 206 nM.

Consider `NS(=O)(=O)c1cccc(-n2ncc3c(-c4cncc5ccccc45)ccnc32)c1` [Example 7, 3-(4-(Isoquinolin-4-yl)-1H-pyrazolo[3,4-b]pyridin-1-yl)benzenesulfonamide], for which the IC50 turned out to be 23 nM.

Take `Fc1ccc(-n2ncc3c(-c4cncc5ccccc45)ccnc32)cc1` [Example 1, 4-(1-(4-Fluorophenyl)-1H-pyrazolo[3,4-b]pyridin-4-yl)isoquinoline]: the 50% inhibitory concentration (IC50) stood at 128 nM.

Consider `Cn1cncc1-c1ccnc2c1cnn2-c1cccc(S(N)(=O)=O)c1` [Example 6, 3-(4-(1-Methyl-1H-imidazol-5-yl)-1H-pyrazolo[3,4-b]pyridin-1-yl)benzenesulfonamide], for which the IC50 was determined as 271 nM.

Consider `Fc1ccc(-n2ncc3c(-c4cncc5ncccc45)ccnc32)cc1` [Example 3, 5-(1-(4-Fluorophenyl)-1H-pyrazolo[3,4-b]pyridin-4-yl)-1,7-naphthyridine], for which the half-maximal inhibitory concentration (IC50) is 41 nM.

Consider `Fc1ccc(-n2ncc3c(-n4ccnc4)ccnc32)cc1` [Example 2, 1-(4-Fluorophenyl)-4-(1H-imidazol-1-yl)-1H-pyrazolo[3,4-b]pyridine], for which the IC50 came to 640 nM.

For `Fc1ccc(-n2ncc3c(-c4cncn5cccc45)ccnc32)c(F)c1` [Example 8, 1-(2,4-Difluorophenyl)-4-(pyrrolo[1,2-c]pyrimidin-4-yl)-1H-pyrazolo[3,4-b]pyridine], the concentration for half-maximal inhibition (IC50) came to 76 nM.

On to `Cn1cncc1-c1ccnc2c1cnn2-c1ccc(F)cc1` [Example 4, 1-(4-Fluorophenyl)-4-(1-methyl-1H-imidazol-5-yl)-1H-pyrazolo[3,4-b]pyridine], for which the IC50 stood at 50 nM.
